Measurements taken from patent US20070287676A1, “Diagnosis and treatment of endometriosis” (priority 2006, published 2007).
Entries after “also recorded” stand apart in the source; their conditions may differ.

Experiments:
[1] = tested on: YHES cells (immortalized human endometrial stromal cell line); assay: MTT cell proliferation assay in YHES cells; assay type: cell-based; conditions: 48 hr
Description: An immortalized human endometrial stromal cell line was maintained following Krikun et al. (Krikun et al. 2004 Endocrinology 145:2291-6). Cells were maintained in phenol red-free DMEM/F12 (Gibco, CA) medium supplemented with 10% charcoal-dextran stripped FBS (Biomeda, CA), 1 μl/ml sodium pyruvate (Gibco, CA) and 1× Pen/Strep/Fungizone (Gibco, CA), at 37° C. with 5% C02 in a humidified incubator.
(§1) The YHES cells were harvested by trypsinization and seeded in 96-well plate at ˜1×10^4 cells/well. The cells were allowed to attach to the plate for overnight at 37° C. with 5% C02 in a humidified incubator. Then they were pretreated with physiological concentration of E2 (10^-9M) and P (10^-7M) for 24 hr to maintain hormonal responsiveness. […] Cell growth was valuated by the MTT assay (ATCC, Manassas, Va.). MTT assay was performing according to the manufacturer's instructions, and in triplicate to generate mean values. Cell numbers in the untreated control were arbitrarily assigned as 1. The relative cell growth was expressed as fold increase/decrease relative to the control. Data were presented as mean values from three independently repeated experiments.

[2] = tested on: YHES cells pretreated with H2O2; assay: H2O2-induced cell proliferation, MTT assay; assay type: cell-based, human; conditions: 100 μM, H2O2 1 μM, 48 hours, vs H2O2 only
Description: MTT assay was performed after 48 hours of treatment.
as §1
The addition of H202 was meant to mimic the oxidative stress as reported in endometriosis. […] RU486 suppressed cell proliferation by 75% at the concentration of 100 μM.

YHES cells = assay: Long-term culture and morphology after treatment; assay type: cell-based, human
Text: The micrographs of the first two rows were taken using 20× magnification, and those of the third row were taken using 10× magnification. The micrographs of the first row and the first two micrographs of second row were obtained using differential inference contrast (DIC) optic; the others were obtained without the DIC optic. […]

AR [3] = assay: AR mRNA expression by RT-PCR in treated YHES cells; assay type: cell-based, human
Description: (§2) The YHES cells were harvested by trypsinization and seeded in 12-well at 5×10^4 cells/well plates and were pretreated with E2 and P as described above. […] Total RNA was isolated from treated cells using TRIzol reagent (Invitrogen, Carlsbad, Calif.) according to the manufacturer's instructions. The integrity of total RNA was inspected on an agarose gel. One microgram of total RNA from each sample was treated with DNase I to remove potential DNA contamination and then reverse-transcribed using Superscript II Reverse Transcriptase (Invitrogen). First-strand cDNA obtained from RNA samples was stored at −80° C. until use. To measure the mRNA expression levels of AR, PR-A, PR-B, Fas and FasL in each cell culture, semi-quantitative PCR analysis was performed.
(§3) Quantitative real-time RT-PCR was carried out on an ABI 7900 DNA sequencer (Applied Biosystems), and monitored by SYBR Green I (Qiagen, Valencia, Calif.). The PCR products of the expected size were visualized on a 0.8% agarose gel. The relative mRNA level of each gene was calculated using relative quantitation of gene expression (Applied Biosystems, Foster City, Calif.) with 18s as an endogenous control. The reproducibility of the quantitative measurements was evaluated by two independent cDNA syntheses. The means and standard deviations of the replicated measurements were calculated and presented as mean ±s.d.

PR-A = PR-A mRNA expression by RT-PCR in treated YHES cells; assay type: cell-based, human
Description: as §2, §3

PR-B = PR-B mRNA expression by RT-PCR in treated YHES cells; assay type: cell-based, human
Description: as §2, §3

Fas = Fas mRNA expression by RT-PCR in treated YHES cells; assay type: cell-based, human; conditions: TSA 10 μM, time not stated
Description: as §2, §3

FasL = FasL mRNA expression by RT-PCR in treated YHES cells; assay type: cell-based, human
Description: as §2, §3

AR [4] = assay: Western blot of AR protein in treated YHES cells; assay type: cell-based, human; conditions: 16 hrs; TSA 10 μM, CDB 100 μM, NAC 10 mM
Description: Western blot analysis was performed to measure protein expression of β-actin, ERα, ERβ, and AR. […] Whole cell lysate was prepared as previously described (44) by using RIPA lysis buffer containing 50 mM Tris, pH 7.4, 150 mM NaCl, 12 mM EDTA, 1% Triton X-100, 0.5% sodium deoxycholate, and 0.1% SDS. To avoid degradation, a protease inhibitor cocktail III (Sigma) was added at 2%. Total protein was quantified using a BCA protein assay kit (Pierce, Rockford, Ill.). Ten microgram of total protein was separated by electrophoresis on 10% SDS-polyacrylamide gels. The protein was then transferred onto PVDF membranes (Milipore, Bedford, Mass.). […] The blot was then subsequently incubated with primary antibody rabbit anti-human ERα (Santa Cruz Biotechnology, CA), rabbit anti-human ERβ (Zymed Laboratories, South San Francisco, Calif.), rabbit anti-β-actin (Cell Signaling Technology, Beverly, Mass.), or rabbit ant-human AR (Santa Cruz Biotechnology, CA), respectively, in blocking solution (5% nonfat dry milk plus PBS) for 2 hr at room temperature. After washing with PBS plus 0.5% Tween-20, the membranes were then incubated with the secondary antibody goat anti-rabbit IgG (H+L)-HRP (Santa Cruz Biotechnology, CA) at 1:8000 dilution in blocking solution for 2 h at room temperature. […]

endometriotic cells = assay: Sensitivity of endometriotic versus endometrial cells to TSA (unpublished observation); assay type: cell-based; conditions: Wu and Guo
COX-2 = conditions: cited from earlier work
endometrial cells = conditions: immortalized human endometrial stromal cells; cited from earlier work
[5] = tested on: endometrial stromal cells; conditions: in vitro; cited from earlier work
[6] = 8 h, 18 h and 36 h, TSA 10 μM, CDB 100 μM, NAC 10 mM, semi-quantitative RT-PCR

Question: Which results are given for `CC(/C=C/C(=O)NO)=C\[C@@H](C)C(=O)c1ccc(N(C)C)cc1` [TSA, trichostatin A]?
Answer: reduction of cell proliferation as compared with controls ([1]; 100 μM): ~90%; effect on cell proliferation ([1]; across 100, 10, 1, 0.1 μM): strong concentration-dependent antiproliferative effect; suppression of H2O2-induced cell proliferation [2]: 50%; cell morphology (YHES cells; 24 h after the treatment): signs of apparent apoptosis; recovery judged by morphology (YHES cells; four weeks after the treatment, TSA and RU486 at 100 μM): did not recover; AR mRNA expression level vs untreated control (AR [3]; [6]): increased; decrease of AR expression as compared with the control group (AR [3]; 36 h of treatment, real-time RT-PCR): about 50%; PR-A mRNA expression level vs untreated control (PR-A; [6]): increased; PR-A expression, comparison among treatment groups (PR-A; overall, real-time RT-PCR): greatest increase; PR-B mRNA expression level vs untreated control (PR-B; [6]): increased; PR-B expression, comparison among treatment groups (PR-B; overall, real-time RT-PCR): greatest increase; Fas expression vs control group (Fas): lower than the control group; increase in FasL expression as compared with the controls (FasL; 18 h after the treatment): ~25 fold; FasL expression (FasL; especially 18 and 36 h after the treatment): dramatic increase; AR protein level vs control group (AR [4]): highest expression; sensitivity of endometriotic cells relative to endometrial cells (endometriotic cells): over 100 fold; effect on IL-1β-induced COX-2 expression (COX-2): suppresses IL-1β-induced COX-2 expression; effect on cell cycle (endometrial cells): induce cell cycle arrest; effect on proliferation [5]: suppresses proliferation of endometrial stromal cells; also recorded: suppressing proliferation of endometrial and endometriotic cells in vitro
